≈ marks a conversion by molar mass, not a printed value.
Columns and labels:
Type in all cases: functional
[1] = system: Staphylococcus aureus; assay: Ratio of amoxicillin MIC to compound MIC for methicillin-resistant Staphylococcus aureus isolate cpu1098
[2] = system: Staphylococcus epidermidis; assay: Antibacterial activity against methicillin-resistant Staphylococcus epidermidis isolate cpu3569 after 18 to 20 hrs by agar dilution method
[3] = system: Staphylococcus aureus; assay: Ratio of amoxicillin MIC to compound MIC for methicillin-resistant Staphylococcus aureus isolate cpu3256
[4] = system: Staphylococcus epidermidis; assay: Antibacterial activity against methicillin-resistant Staphylococcus epidermidis isolate cpu2736 after 18 to 20 hrs by agar dilution method
[5] = system: Staphylococcus aureus; assay: Antibacterial activity against methicillin-resistant Staphylococcus aureus isolate cpu1098 after 18 to 20 hrs by agar dilution method
[6] = system: Staphylococcus aureus; assay: Ratio of tiamulin MIC to compound MIC for methicillin-resistant Staphylococcus aureus isolate cpu3256
[7] = system: Staphylococcus aureus; assay: Antibacterial activity against methicillin-sensitive Staphylococcus aureus isolate cpu0587 after 18 to 20 hrs by agar dilution method
[8] = system: Staphylococcus epidermidis; assay: Antibacterial activity against methicillin-resistant Staphylococcus epidermidis isolate cpu2623 after 18 to 20 hrs by agar dilution method
[9] = system: Staphylococcus aureus; assay: Ratio of tiamulin MIC to compound MIC for methicillin-resistant Staphylococcus aureus isolate cpu0887
[10] = system: Staphylococcus epidermidis; assay: Antibacterial activity against methicillin-sensitive Staphylococcus epidermidis isolate cpu0347 after 18 to 20 hrs by agar dilution method
[11] = system: Staphylococcus aureus; assay: Ratio of amoxicillin MIC to compound MIC for methicillin-resistant Staphylococcus aureus isolate cpu0446
[12] = system: Staphylococcus aureus; assay: Antibacterial activity against methicillin-sensitive Staphylococcus aureus isolate cpu1044 after 18 to 20 hrs by agar dilution method
[13] = system: Staphylococcus aureus; assay: Antibacterial activity against methicillin-resistant Staphylococcus aureus isolate cpu0887 after 18 to 20 hrs by agar dilution method
[14] = system: Staphylococcus aureus; assay: Antibacterial activity against methicillin-sensitive Staphylococcus aureus isolate cpu0211 after 18 to 20 hrs by agar dilution method
[15] = system: Staphylococcus aureus; assay: Ratio of amoxicillin MIC to compound MIC for methicillin-resistant Staphylococcus aureus isolate cpu0887
[16] = system: Staphylococcus epidermidis; assay: Antibacterial activity against methicillin-sensitive Staphylococcus epidermidis isolate cpu0315 after 18 to 20 hrs by agar dilution method
[17] = system: Staphylococcus epidermidis; assay: Antibacterial activity against methicillin-sensitive Staphylococcus epidermidis isolate cpu1561 after 18 to 20 hrs by agar dilution method
[18] = system: Staphylococcus aureus; assay: Antibacterial activity against methicillin-resistant Staphylococcus aureus isolate cpu0446 after 18 to 20 hrs by agar dilution method
[19] = system: Staphylococcus aureus; assay: Ratio of tiamulin MIC to compound MIC for methicillin-resistant Staphylococcus aureus isolate cpu1098
[20] = system: Staphylococcus epidermidis; assay: Antibacterial activity against methicillin-resistant Staphylococcus epidermidis isolate cpu3889 after 18 to 20 hrs by agar dilution method
[21] = system: Staphylococcus epidermidis; assay: Antibacterial activity against methicillin-sensitive Staphylococcus epidermidis isolate cpu2089 after 18 to 20 hrs by agar dilution method
[22] = system: Staphylococcus aureus; assay: Antibacterial activity against methicillin-sensitive Staphylococcus aureus isolate cpu1344 after 18 to 20 hrs by agar dilution method
[23] = system: Staphylococcus aureus; assay: Antibacterial activity against methicillin-resistant Staphylococcus aureus isolate cpu3256 after 18 to 20 hrs by agar dilution method
[24] = system: Staphylococcus aureus; assay: Ratio of tiamulin MIC to compound MIC for methicillin-resistant Staphylococcus aureus isolate cpu0446
[25] = system: Staphylococcus epidermidis; assay: Ratio of amoxicillin MIC to compound MIC for methicillin-sensitive Staphylococcus epidermidis isolate cpu2089
[26] = system: Staphylococcus aureus; assay: Ratio of amoxicillin MIC to compound MIC for methicillin-sensitive Staphylococcus aureus isolate cpu1344
[27] = system: Staphylococcus epidermidis; assay: Ratio of amoxicillin MIC to compound MIC for methicillin-sensitive Staphylococcus epidermidis isolate cpu0315
[28] = system: Staphylococcus epidermidis; assay: Ratio of amoxicillin MIC to compound MIC for methicillin-sensitive Staphylococcus epidermidis isolate cpu1561
[29] = system: Staphylococcus epidermidis; assay: Ratio of amoxicillin MIC to compound MIC for methicillin-sensitive Staphylococcus epidermidis isolate cpu0347
[30] = system: Staphylococcus aureus; assay: Ratio of amoxicillin MIC to compound MIC for methicillin-sensitive Staphylococcus aureus isolate cpu0211
[31] = system: Staphylococcus aureus; assay: Ratio of amoxicillin MIC to compound MIC for methicillin-sensitive Staphylococcus aureus isolate cpu0587
[32] = system: Staphylococcus aureus; assay: Ratio of amoxicillin MIC to compound MIC for methicillin-sensitive Staphylococcus aureus isolate cpu1044

Row | SMILES | MIC [2] | MIC [4] | MIC [5] | MIC [7] | MIC [8] | MIC [10] | MIC [12] | MIC [13] | MIC [14] | MIC [16] | MIC [17] | MIC [18] | MIC [20] | MIC [21] | MIC [22] | MIC [23] | also measured
1 | C=C[C@]1(C)C[C@@H](OC(=O)CSCc2csc(N)n2)[C@]2(C)[C@H](C)CC[C@]3(CCC(=O)[C@H]32)[C@@H](C)[C@@H]1O | 0.125 µg/mL (≈ 0.247 µM) | 0.125 µg/mL (≈ 0.247 µM) | 0.5 µg/mL (≈ 0.987 µM) | 2 µg/mL (≈ 3.95 µM) | 0.125 µg/mL (≈ 0.247 µM) | 0.125 µg/mL (≈ 0.247 µM) | 2 µg/mL (≈ 3.95 µM) | 0.0625 µg/mL (≈ 0.123 µM) | 0.5 µg/mL (≈ 0.987 µM) | 0.125 µg/mL (≈ 0.247 µM) | 0.125 µg/mL (≈ 0.247 µM) | 0.25 µg/mL (≈ 0.493 µM) | 0.125 µg/mL (≈ 0.247 µM) | 0.125 µg/mL (≈ 0.247 µM) | 0.125 µg/mL (≈ 0.247 µM) | 0.5 µg/mL (≈ 0.987 µM) | Ratio [1]: 4; Ratio [3]: 4; Ratio [6]: 4; Ratio [9]: 4; Ratio [11]: 4; Ratio [15]: 4; Ratio [19]: 4; Ratio [24]: 4
2 | C=C[C@]1(C)C[C@@H](OC(=O)CSCc2csc(NC(=O)CN(CC)CC)n2)[C@]2(C)[C@H](C)CC[C@]3(CCC(=O)[C@H]32)[C@@H](C)[C@@H]1O | 0.25 µg/mL (≈ 0.403 µM) | 0.25 µg/mL (≈ 0.403 µM) | 0.5 µg/mL (≈ 0.807 µM) | 8 µg/mL (≈ 12.9 µM) | 0.25 µg/mL (≈ 0.403 µM) | 0.25 µg/mL (≈ 0.403 µM) | 1 µg/mL (≈ 1.61 µM) | 0.25 µg/mL (≈ 0.403 µM) | 1 µg/mL (≈ 1.61 µM) | 0.25 µg/mL (≈ 0.403 µM) | 0.25 µg/mL (≈ 0.403 µM) | 0.5 µg/mL (≈ 0.807 µM) | 2 µg/mL (≈ 3.23 µM) | 0.25 µg/mL (≈ 0.403 µM) | 0.25 µg/mL (≈ 0.403 µM) | 2 µg/mL (≈ 3.23 µM) | 
3 | C=C[C@]1(C)C[C@@H](OC(=O)CSCc2csc(NC(=O)CN(CCC)CCC)n2)[C@]2(C)[C@H](C)CC[C@]3(CCC(=O)[C@H]32)[C@@H](C)[C@@H]1O | 4 µg/mL (≈ 6.17 µM) | 2 µg/mL (≈ 3.09 µM) | 1 µg/mL (≈ 1.54 µM) | 0.5 µg/mL (≈ 0.772 µM) | 0.5 µg/mL (≈ 0.772 µM) | 0.5 µg/mL (≈ 0.772 µM) | 0.5 µg/mL (≈ 0.772 µM) | 0.5 µg/mL (≈ 0.772 µM) | 0.5 µg/mL (≈ 0.772 µM) | 8 µg/mL (≈ 12.3 µM) | 4 µg/mL (≈ 6.17 µM) | 0.5 µg/mL (≈ 0.772 µM) | 2 µg/mL (≈ 3.09 µM) | 0.5 µg/mL (≈ 0.772 µM) | 1 µg/mL (≈ 1.54 µM) | 1 µg/mL (≈ 1.54 µM) | 
4 | C=C[C@]1(C)C[C@@H](OC(=O)CSCc2csc(NC(=O)CN(CCCC)CCCC)n2)[C@]2(C)[C@H](C)CC[C@]3(CCC(=O)[C@H]32)[C@@H](C)[C@@H]1O | 8 µg/mL (≈ 11.8 µM) | 16 µg/mL (≈ 23.7 µM) | 8 µg/mL (≈ 11.8 µM) | 4 µg/mL (≈ 5.92 µM) | 4 µg/mL (≈ 5.92 µM) | 8 µg/mL (≈ 11.8 µM) | 4 µg/mL (≈ 5.92 µM) | 32 µg/mL (≈ 47.3 µM) | 4 µg/mL (≈ 5.92 µM) | 8 µg/mL (≈ 11.8 µM) | 16 µg/mL (≈ 23.7 µM) | 8 µg/mL (≈ 11.8 µM) | 16 µg/mL (≈ 23.7 µM) | 4 µg/mL (≈ 5.92 µM) | 16 µg/mL (≈ 23.7 µM) | 8 µg/mL (≈ 11.8 µM) | 
5 | C=C[C@]1(C)C[C@@H](OC(=O)CSCc2csc(NC(=O)CN3CCCC3)n2)[C@]2(C)[C@H](C)CC[C@]3(CCC(=O)[C@H]32)[C@@H](C)[C@@H]1O | 0.5 µg/mL (≈ 0.809 µM) | 0.5 µg/mL (≈ 0.809 µM) | 0.25 µg/mL (≈ 0.405 µM) | 0.125 µg/mL (≈ 0.202 µM) | 0.5 µg/mL (≈ 0.809 µM) | 0.25 µg/mL (≈ 0.405 µM) | 0.25 µg/mL (≈ 0.405 µM) | 0.5 µg/mL (≈ 0.809 µM) | 0.125 µg/mL (≈ 0.202 µM) | 2 µg/mL (≈ 3.24 µM) | 0.5 µg/mL (≈ 0.809 µM) | 0.25 µg/mL (≈ 0.405 µM) | 0.25 µg/mL (≈ 0.405 µM) | 0.125 µg/mL (≈ 0.202 µM) | 0.25 µg/mL (≈ 0.405 µM) | 0.25 µg/mL (≈ 0.405 µM) | 
6 | C=C[C@]1(C)C[C@@H](OC(=O)CSCc2csc(NC(=O)CN3CCCCC3)n2)[C@]2(C)[C@H](C)CC[C@]3(CCC(=O)[C@H]32)[C@@H](C)[C@@H]1O | 0.0625 µg/mL (≈ 0.0989 µM) | 0.0625 µg/mL (≈ 0.0989 µM) | 0.25 µg/mL (≈ 0.396 µM) | 2 µg/mL (≈ 3.17 µM) | 0.0625 µg/mL (≈ 0.0989 µM) | 0.0625 µg/mL (≈ 0.0989 µM) | 0.125 µg/mL (≈ 0.198 µM) | 0.0625 µg/mL (≈ 0.0989 µM) | 0.125 µg/mL (≈ 0.198 µM) | 0.0625 µg/mL (≈ 0.0989 µM) | 0.0625 µg/mL (≈ 0.0989 µM) | 0.5 µg/mL (≈ 0.791 µM) | 0.0625 µg/mL (≈ 0.0989 µM) | 0.125 µg/mL (≈ 0.198 µM) | 0.0625 µg/mL (≈ 0.0989 µM) | 0.25 µg/mL (≈ 0.396 µM) | Ratio [25]: 8; Ratio [26]: 8; Ratio [27]: 8; Ratio [28]: 8; Ratio [29]: 8; Ratio [30]: 8; Ratio [31]: 8; Ratio [32]: 8
